According to patent publication US9045498B2, “Hexahydropyrano[3,4-d][1,3]thiazin-2-amine compounds” (Pfizer Inc., priority 2012, dated 2015):

Columns and labels:
BACE1 enzyme = BACE1 enzyme (Homo sapiens (Human), UniProt P56817); assay: BACE1 Cell-Free Assay (fluorescence polarization); assay type: biochemical; details: geometric mean of 2-3 determinations; pH 4.5, 3 hours at 37° C.
Description: This assay measures the inhibition of the beta-secretase enzyme as it cleaves a non-native peptide.
A synthetic APP substrate that can be cleaved by beta-secretase having N-terminal biotin and made fluorescent by the covalent attachment of Oregon Green at the Cys residue is used to assay beta-secretase activity in the presence or absence of the inhibitory compounds. […] The BACE1 enzyme is affinity purified material from conditioned media of CHO-K1 cells that have been transfected with a soluble BACE construct (BACE1deltaTM96His). Compounds are incubated in a ½ log dose response curve from a top concentration of 100 μM with BACE1 enzyme and the biotinylated fluorescent peptide in 384-well black plates (Thermo Scientific #4318). BACE1 is at a final concentration of 0.1 nM with a final concentration of peptide substrate of 150 nM in a reaction volume of 30 μL assay buffer (100 mM sodium acetate, pH 4.5 (brought to pH with acetic acid), and 0.001% Tween-20). Plates are covered and incubated for 3 hours at 37° C. The reaction is stopped with the addition of 30 μL of 1.5 μM Streptavidin (Pierce, #21125). After a 10 minute incubation at room temperature, plates are read on a PerkinElmer EnVision for fluorescence polarization (Ex485 nm/Em530 nm). The activity of the beta-secretase enzyme is detected by changes in the fluorescence polarization that occur when the substrate is cleaved by the enzyme.

[1] = system: sAPPβ levels in H4 human neuroglioma cells over-expressing the wild-type human APP695; assay: Whole Cell Assay (In Vitro sAPPb Assay); assay type: cell-based; details: 18 hours treatment, geometric mean of 2-3 determinations (4-7 where marked d)
Description: Whole Cell Assay (In Vitro sAPPb Assay):
H4 human neuroglioma cells over-expressing the wild-type human APP695 are treated for 18 hours with compound in cell growth media having a final concentration 1% DMSO. sAPPβ levels are measured using either TMB-ELISA or Pierce SuperSignal ELISA Pico Chemiluminescent Substrate (Pierce 37069) with capture APP N-terminal antibody (Affinity BioReagents, OMA1-03132), wild-type sAPPβ specific reporter p192 (Elan), and tertiary anti rabbit-HRP (GE Healthcare).

BACE2 enzyme = BACE2 enzyme (Homo sapiens (Human), UniProt Q9Y5Z0); assay: BACE2 Cell-free Assay (fluorescence polarization); assay type: biochemical; details: pH 4.5, 3 hours at 37° C.; number of determinations per footnote a, b, d
BACE2 enzyme, sequence (Q9Y5Z0 63-518): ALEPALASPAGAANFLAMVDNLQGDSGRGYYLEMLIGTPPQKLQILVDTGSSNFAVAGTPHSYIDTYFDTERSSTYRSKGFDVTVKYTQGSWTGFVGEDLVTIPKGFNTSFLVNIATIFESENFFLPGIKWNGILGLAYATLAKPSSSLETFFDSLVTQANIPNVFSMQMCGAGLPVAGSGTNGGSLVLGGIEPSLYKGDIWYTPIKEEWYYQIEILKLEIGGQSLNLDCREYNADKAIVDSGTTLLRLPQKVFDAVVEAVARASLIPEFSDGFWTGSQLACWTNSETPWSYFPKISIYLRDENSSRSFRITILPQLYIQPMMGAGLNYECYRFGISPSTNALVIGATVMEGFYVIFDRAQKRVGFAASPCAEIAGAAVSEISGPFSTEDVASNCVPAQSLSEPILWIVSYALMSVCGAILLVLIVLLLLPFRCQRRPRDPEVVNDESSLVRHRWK
Description: This assay measures the inhibition of the BACE2 enzyme as it cleaves a non-native peptide. A synthetic substrate that can be cleaved by BACE2 having N-terminal biotin and made fluorescent by the covalent attachment of Oregon Green at the Cys residue is used to assay BACE2 activity in the presence or absence of the inhibitory compounds. The substrate is Biotin-[…]-C(Oregon green)-KK-OH. The BACE2 enzyme is available from Enzo Life Sciences (Cat # BML-SE550). Compounds are incubated in a ½ log dose response curve from a top concentration of 100 μM with BACE2 enzyme and the biotinylated fluorescent peptide in 384-well black plates (Thermo Scientific #4318). BACE2 is at a final concentration of 2.5 nM with a final concentration of peptide substrate of 150 nM in a reaction volume of 30 μL assay buffer (100 mM sodium acetate, pH 4.5 (brought to pH with acetic acid), and 0.001% Tween-20). Plates are covered and incubated for 3 hours at 37° C. The reaction is stopped with the addition of 30 μL of 1.5 μM Streptavidin (Pierce, #21125). After a 10 minute incubation at room temperature, plates are read on a Perkin Elmer EnVision for fluorescence polarization (Ex485 nm/Em530 nm). The activity of the beta-secretase enzyme is detected by changes in the fluorescence polarization that occur when the substrate is cleaved by the enzyme.

BACE1 enzyme, sequence (P56817 46-457): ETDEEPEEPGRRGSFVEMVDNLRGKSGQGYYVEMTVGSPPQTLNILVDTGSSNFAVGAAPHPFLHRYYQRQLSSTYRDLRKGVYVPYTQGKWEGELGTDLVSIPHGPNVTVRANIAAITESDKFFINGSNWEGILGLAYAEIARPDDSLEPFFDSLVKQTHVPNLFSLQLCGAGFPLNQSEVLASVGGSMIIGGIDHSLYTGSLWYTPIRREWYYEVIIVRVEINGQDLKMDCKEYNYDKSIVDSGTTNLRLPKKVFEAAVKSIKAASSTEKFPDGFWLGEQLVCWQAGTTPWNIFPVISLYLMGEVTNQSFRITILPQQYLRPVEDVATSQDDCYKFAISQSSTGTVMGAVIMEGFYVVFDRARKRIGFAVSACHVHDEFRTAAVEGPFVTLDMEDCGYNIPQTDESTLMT

| SMILES | IC50 (BACE1 enzyme) | IC50 [1] | IC50 (BACE2 enzyme) |
| --- | --- | --- | --- |
| Cn1cc([C@H]2C[C@H]3CSC(N)=N[C@@]3(c3cc(C#N)ccc3F)CO2)cn1 [Example 12, 3-[(4aR,6R,8aS)-2-Amino-6-(1-methyl-1H-pyrazol-4-yl)-4,4a,5,6-tetrahydropyrano[3,4-d][1,3]thiazin-8a(8H)-yl]-4-fluorobenzonitrile] | 60 nM | 6.43 nM | – |
| NC1=N[C@@]2(c3cc(CNCC(F)(F)F)c(F)cc3F)CO[C@@H](CF)C[C@H]2CS1 [Example 8, (4aR,6R,8aS)-8a-(2,4-Difluoro-5-{[(2,2,2-trifluoroethyl)amino]methyl}phenyl)-6-(fluoromethyl)-4,4a,5,6,8,8a-hexahydropyrano[3,4-d][1,3]thiazin-2-amine] | – | 5.9 nM | – |
| N#Cc1cc([C@]23CO[C@@H](CF)C[C@H]2CSC(N)=N3)c(F)cc1F [Example 4, 5-[(4aR,6R,8aS)-2-Amino-6-(fluoromethyl)-4,4a,5,6-tetrahydropyrano[3,4-d][1,3]thiazin-8a(8H)-yl]-2,4-difluorobenzonitrile] | – | 93 nM | 2520 nM |
| Cc1cc([C@H]2C[C@H]3CSC(N)=N[C@@]3(c3cc(C#N)ccc3F)CO2)on1 [Example 10, 3-[(4aR,6R,8aS)-2-Amino-6-(3-methyl-1,2-oxazol-5-yl)-4,4a,5,6-tetrahydropyrano[3,4-d][1,3]thiazin-8a(8H)-yl]-4-fluorobenzonitrile] | 64 nM | 10.9 nM | – |
| COc1cc(F)c([C@]23CO[C@@H](COCc4ccccc4)C[C@H]2CSC(N)=N3)cc1C#N [Example 1, 5-[(4aR,6R,8aS)-2-Amino-6-[(benzyloxy)methyl]-4,4a,5,6-tetrahydropyrano[3,4-d][1,3]thiazin-8a(8H)-yl]-4-fluoro-2-methoxybenzonitrile] | 1220 nM | 53.5 nM | – |
| C[C@H]1C[C@H]2CSC(N)=N[C@@]2(c2cccc(C#N)c2)CO1 [Example 7, 3-[(4aR,6S,8aS)-2-Amino-6-methyl-4,4a,5,6-tetrahydropyrano[3,4-d][1,3]thiazin-8a(8H)-yl]benzonitrile] | 1780 nM | 119 nM | – |
| N#Cc1ccc(F)c([C@]23CO[C@@H](C4CC4)C[C@H]2CSC(N)=N3)c1 [Example 13, 3-[(4aR,6R,8aS)-2-Amino-6-cyclopropyl-4,4a,5,6-tetrahydropyrano[3,4-d][1,3]thiazin-8a(8H)-yl]-4-fluorobenzonitrile] | 342 nM | 47.6 nM | – |
| C[C@H]1C[C@H]2CSC(N)=N[C@@]2(c2cc(CNCC(F)(F)F)c(F)cc2F)CO1 [Example 9, (4aR,6S,8aS)-8a-(2,4-Difluoro-5-{[(2,2,2-trifluoroethyl)amino]methyl}phenyl)-6-methyl-4,4a,5,6,8,8a-hexahydropyrano[3,4-d][1,3]thiazin-2-amine] | 76 nM | 8.94 nM | – |
| C[C@H]1C[C@H]2CSC(N)=N[C@@]2(c2cc(C#N)ccc2Cl)CO1 [Example 6, 3-[(4aR,6S,8aS)-2-Amino-6-methyl-4,4a,5,6-tetrahydropyrano[3,4-d][1,3]thiazin-8a(8H)-yl]-4-chlorobenzonitrile] | 2330 nM | 195 nM | – |
| N#Cc1cc([C@]23CO[C@@H](COCc4ccccc4)C[C@H]2CSC(N)=N3)c(F)cc1F [Example 2, 5-[(4aR,6R,8aS)-2-Amino-6-[(benzyloxy)methyl]-4,4a,5,6-tetrahydropyrano[3,4-d][1,3]thiazin-8a(8H)-yl]-2,4-difluorobenzonitrile] | 445 nM | 74 nM | – |
| COC[C@H]1C[C@H]2CSC(N)=N[C@@]2(c2cc(C#N)c(F)cc2F)CO1 [Example 5, 5-[(4aR,6R,8aS)-2-Amino-6-(methoxymethyl)-4,4a,5,6-tetrahydropyrano[3,4-d][1,3]thiazin-8a(8H)-yl]-2,4-difluorobenzonitrile] | – | 46.5 nM | – |
| Cc1coc([C@H]2C[C@H]3CSC(N)=N[C@@]3(c3cc(C#N)ccc3F)CO2)n1 [Example 11, 3-[(4aR,6R,8aS)-2-Amino-6-(4-methyl-1,3-oxazol-2-yl)-4,4a,5,6-tetrahydropyrano[3,4-d][1,3]thiazin-8a(8H)-yl]-4-fluorobenzonitrile] | 107 nM | 12.1 nM | – |
| N#Cc1cc([C@]23CO[C@@H](CO)C[C@H]2CSC(N)=N3)c(F)cc1F [Example 3, 5-[(4aR,6R,8aS)-2-Amino-6-(hydroxymethyl)-4,4a,5,6-tetrahydropyrano[3,4-d][1,3]thiazin-8a(8H)-yl]-2,4-difluorobenzonitrile] | 5550 nM | 393 nM | – |

Results, then the molecule that gave them:

| IC50 (BACE1 enzyme) | IC50 [1] | IC50 (BACE2 enzyme) | SMILES |
| --- | --- | --- | --- |
| 36 nM | 0.545 nM | 20 nM | COC[C@@H](C)NCc1ccc(F)c([C@]23CO[C@@H](c4cnn(C)c4)C[C@H]2CSC(N)=N3)c1 (relative stereo) [Example 18, (4aR*,6R*,8aS*)-8a-[2-Fluoro-5-({[(2R)-1-methoxypropan-2-yl]amino}methyl)phenyl]-6-(1-methyl-1H-pyrazol-4-yl)-4,4a,5,6,8,8a-hexahydropyrano[3,4-d][1,3]thiazin-2-amine] |
| 150 nM | 30.4 nM | – | C[C@H]1C[C@H]2[C@@H](CF)SC(N)=N[C@@]2(c2cc(CNCC(F)(F)F)ccc2F)CO1 [Example 19, (4S,4aR,6S,8aS)-4-(Fluoromethyl)-8a-(2-fluoro-5-{[(2,2,2-trifluoroethyl)amino]methyl}phenyl)-6-methyl-4,4a,5,6,8,8a-hexahydropyrano[3,4-d][1,3]thiazin-2-amine] |
| 967 nM | 49.6 nM | – | C[C@H]1C[C@H]2CSC(N)=N[C@@]2(c2cc(C#N)ccc2F)CO1 [Example 14, 3-[(4aR,6S,8aS)-2-Amino-6-methyl-4,4a,5,6-tetrahydropyrano[3,4-d][1,3]thiazin-8a(8H)-yl]-4-fluorobenzonitrile] |
| 376 nM | 8.05 nM | 423 nM | NC1=N[C@@]2(c3cc(CNCC(F)(F)F)ccc3F)CO[C@@H](CF)C[C@H]2CS1 [Example 15, (4aR,6R,8aS)-6-(Fluoromethyl)-8a-(2-fluoro-5-{[(2,2,2-trifluoroethyl)amino]methyl}phenyl)-4,4a,5,6,8,8a-hexahydropyrano[3,4-d][1,3]thiazin-2-amine] |
| 19 nM | 1.88 nM | 108 nM | Cn1cc([C@H]2C[C@H]3CSC(N)=N[C@@]3(c3cc(CNCC(F)(F)F)ccc3F)CO2)cn1 (relative stereo) [Example 16, rel-(4aR,6R,8aS)-8a-(2-Fluoro-5-{[(2,2,2-trifluoroethyl)amino]methyl}phenyl)-6-(1-methyl-1H-pyrazol-4-yl)-4,4a,5,6,8,8a-hexahydropyrano[3,4-d][1,3]thiazin-2-amine] |
| 68 nM | 35.7 nM | – | C[C@H]1C[C@H]2[C@@H](CF)SC(N)=N[C@@]2(c2cc(CNCC(F)(F)F)c(F)cc2F)CO1 [Example 20, (4S,4aR,6S,8aS)-8a-(2,4-Difluoro-5-{[(2,2,2-trifluoroethyl)amino]methyl}phenyl)-4-(fluoromethyl)-6-methyl-4,4a,5,6,8,8a-hexahydropyrano[3,4-d][1,3]thiazin-2-amine] |
| 82 nM | 11.4 nM | – | Cc1cc([C@H]2C[C@H]3[C@@H](C)SC(N)=N[C@@]3(c3cc(C#N)ccc3F)CO2)on1 [Example 17, 3-[(4R,4aR,6R,8aS)-2-Amino-4-methyl-6-(3-methyl-1,2-oxazol-5-yl)-4,4a,5,6-tetrahydropyrano[3,4-d][1,3]thiazin-8a(8H)-yl]-4-fluorobenzonitrile] |
